Results published in article PMC4828318 (Journal of enzyme inhibition and medicinal chemistry, 2015).
Like-named read-outs stand apart in the source and are kept apart here.

Tests used:
DNMT1 [1] = conditions: rats, 21-week treatment period; protein expression ref 39; cited from earlier work
DNMT1 [2] = biological target: DNMT1 (Homo sapiens, UniProt P26358); assay: In vitro DNMT inhibition, radiometric filter-paper assay, DNMT1; type: biochemical
DNMT3A/3L = DNMT3A/3L (Homo sapiens, UniProt Q9Y6K1); assay: In vitro DNMT inhibition, radiometric filter-paper assay, DNMT3A/3L; type: biochemical
HepG2 cells = assay: MTT cell proliferation assay, HepG2; type: cell-based; conditions: Homo sapiens, HepG2, 24 h, read-out: IC50 (μM) HepG2
DNMT3B/3L = DNMT3B/3L (Homo sapiens, UniProt Q9UBC3); assay: In vitro DNMT inhibition, radiometric filter-paper assay, DNMT3B/3L; type: biochemical
DNMT3B = conditions: rats, 21-week treatment period; protein expression ref 39; cited from earlier work
HT-29 cells = assay: MTT cell proliferation assay, HT-29; type: cell-based; conditions: Homo sapiens, HT-29, 24 h, read-out: IC50 (μM) HT-29

Chain of DNMT1 (Homo sapiens, UniProt P26358) (P26358 whole entry): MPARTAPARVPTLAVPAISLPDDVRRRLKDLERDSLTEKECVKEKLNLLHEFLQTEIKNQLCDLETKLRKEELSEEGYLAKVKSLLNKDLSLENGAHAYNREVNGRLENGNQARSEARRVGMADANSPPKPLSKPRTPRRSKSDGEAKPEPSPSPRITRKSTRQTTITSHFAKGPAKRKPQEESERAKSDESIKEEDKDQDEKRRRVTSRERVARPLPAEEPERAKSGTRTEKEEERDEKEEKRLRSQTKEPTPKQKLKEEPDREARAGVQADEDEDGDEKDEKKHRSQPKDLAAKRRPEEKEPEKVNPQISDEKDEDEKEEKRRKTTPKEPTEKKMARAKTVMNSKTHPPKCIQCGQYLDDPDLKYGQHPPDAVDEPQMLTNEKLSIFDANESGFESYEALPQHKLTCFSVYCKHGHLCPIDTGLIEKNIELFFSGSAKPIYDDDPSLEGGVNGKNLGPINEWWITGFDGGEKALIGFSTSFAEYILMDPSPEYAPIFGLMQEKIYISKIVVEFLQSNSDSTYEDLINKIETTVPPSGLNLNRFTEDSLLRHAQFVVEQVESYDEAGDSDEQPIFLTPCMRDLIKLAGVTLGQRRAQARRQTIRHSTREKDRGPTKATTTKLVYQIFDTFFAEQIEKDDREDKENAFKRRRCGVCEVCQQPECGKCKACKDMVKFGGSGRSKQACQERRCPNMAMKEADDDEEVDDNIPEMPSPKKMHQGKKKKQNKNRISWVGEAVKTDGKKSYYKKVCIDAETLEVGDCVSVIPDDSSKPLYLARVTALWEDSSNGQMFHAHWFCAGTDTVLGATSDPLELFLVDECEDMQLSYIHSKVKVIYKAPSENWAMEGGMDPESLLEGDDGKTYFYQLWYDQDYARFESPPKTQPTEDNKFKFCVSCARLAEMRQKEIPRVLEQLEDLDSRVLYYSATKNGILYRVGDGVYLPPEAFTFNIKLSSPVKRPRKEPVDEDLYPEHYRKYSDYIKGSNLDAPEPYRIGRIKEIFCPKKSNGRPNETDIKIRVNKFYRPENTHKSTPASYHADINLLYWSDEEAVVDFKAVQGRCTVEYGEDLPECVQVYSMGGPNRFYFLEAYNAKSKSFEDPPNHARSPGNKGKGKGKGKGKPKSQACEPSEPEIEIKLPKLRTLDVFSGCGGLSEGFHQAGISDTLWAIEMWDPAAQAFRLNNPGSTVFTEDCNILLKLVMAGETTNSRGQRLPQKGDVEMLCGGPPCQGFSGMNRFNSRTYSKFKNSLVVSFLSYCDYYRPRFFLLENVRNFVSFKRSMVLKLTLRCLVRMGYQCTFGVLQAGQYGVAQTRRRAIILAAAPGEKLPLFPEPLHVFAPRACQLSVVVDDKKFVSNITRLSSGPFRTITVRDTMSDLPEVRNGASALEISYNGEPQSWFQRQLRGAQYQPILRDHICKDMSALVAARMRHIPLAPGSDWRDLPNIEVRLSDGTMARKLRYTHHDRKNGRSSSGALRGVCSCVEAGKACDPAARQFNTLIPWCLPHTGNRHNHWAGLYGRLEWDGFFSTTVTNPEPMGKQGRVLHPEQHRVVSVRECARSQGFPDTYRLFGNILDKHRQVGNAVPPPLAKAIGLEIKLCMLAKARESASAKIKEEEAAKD

## Oc1ccc(/C=C/c2cc(O)cc(O)c2)cc1 [Resveratrol, 3,4′,5-trans-trihydroxystilbene]
DNMT1 [1]
  expression of the DNMT1 enzyme: did not significantly reduce
DNMT1 [2]
  IC50: > 300 µM
DNMT3A/3L
  IC50: 105 µM
HepG2 cells
  IC50: 54.9 µM
DNMT3B/3L
  IC50: 65 µM
DNMT3B
  expression of DNMT3B: significant reduction
HT-29 cells
  IC50: 130 µM

## COc1ccc(/C=C/c2cc(OC)cc(OC)c2)cc1 [TMS, 3,4′,5-trans-trimethoxystilbene]
DNMT1 [2]; 300 μM
  inhibition of DNMT1 at the highest test compound concentration: no significant inhibition
DNMT1 [2]; read-out: IC50 (μM) DNMT1, cell-free biochemical assay, NI = no inhibition at the maximum test compound concentration (300 μM)
  IC50: > 300 µM
DNMT3A/3L
  IC50: > 300 µM
DNMT3A/3L; 300 μM
  inhibition of DNMT3A at the highest test compound concentration: no significant inhibition
HepG2 cells
  IC50: > 100 µM
DNMT3B/3L
  IC50: > 300 µM
DNMT3B/3L; 300 μM
  inhibition of DNMT3B at the highest test compound concentration: no significant inhibition
HT-29 cells
  IC50: 14 µM
